Source: PMC13304707 (Acta Pharmaceutica Sinica. B, 2025)

Assays:
[1] = Cell cytotoxicity, CCK-8 assay; type: cell-based; conditions: African green monkey, Vero E6 cells
VPS34 = conditions: read-out: enzymatic inhibitory potency against VPS34; ref [30], [31], [32], [33]; cited from earlier work
CYP3A4 = CYP3A4 (Homo sapiens, UniProt P08684); experiment: Screening of cytochrome P450 enzymes responsible for degradation; type: in vitro ADME; conditions: liver microsomes, CYP450 screening
[2] = Degradation in liver microsomes; type: in vitro ADME
[3] = Plasma PK profile after single intraperitoneal injection; type: in vivo, C57BL/6 mice
[4] = Tissue distribution after ip administration; type: in vivo, mice; conditions: 10 mg/kg ip

Sequence of CYP3A4 (P08684 whole entry, species assumed): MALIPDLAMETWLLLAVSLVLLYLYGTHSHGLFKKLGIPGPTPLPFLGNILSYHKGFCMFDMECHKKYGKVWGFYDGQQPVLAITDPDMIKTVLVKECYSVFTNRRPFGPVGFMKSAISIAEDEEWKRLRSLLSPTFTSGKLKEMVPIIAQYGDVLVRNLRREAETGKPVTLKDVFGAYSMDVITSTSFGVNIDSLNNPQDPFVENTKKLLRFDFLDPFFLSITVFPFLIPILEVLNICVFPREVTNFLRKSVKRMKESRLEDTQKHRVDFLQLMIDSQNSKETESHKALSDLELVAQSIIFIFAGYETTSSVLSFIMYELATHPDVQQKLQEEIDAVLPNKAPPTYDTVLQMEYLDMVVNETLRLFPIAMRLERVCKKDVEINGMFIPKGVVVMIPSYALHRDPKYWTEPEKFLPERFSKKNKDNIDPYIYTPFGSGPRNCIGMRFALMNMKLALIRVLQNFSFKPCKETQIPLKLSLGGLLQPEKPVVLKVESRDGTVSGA

Row | degradation upon addition of 6β-hydroxytestosterone, a specific inhibitor of CYP3A4 (CYP3A4) | time to extensive degradation to minimal levels in liver microsomes [2] | AUC(0-t) ([3]; C57BL/6, mouse, ip, 10 mg/kg) | Cmax ([3]; C57BL/6, mouse, ip, 10 mg/kg) | half-life ([3]; C57BL/6, mouse, ip, 10 mg/kg) | Tmax ([3]; C57BL/6, mouse, ip, 10 mg/kg, Tmax, mice, 10 mg/kg ip) | CL ([3]; mice, 10 mg/kg ip) | time to Cmax in tissues (cardiorespiratory and renal systems) [4] | SMILES | CC50 at 48 h [1] | IC50 (VPS34)
1 |  |  |  |  |  |  |  |  | Nc1ncc(-c2ccnc(Nc3ccncc3)n2)c(CC2CC2)n1 [PIK-III] | 45.8 µM | 18 nM
2 | almost completely attenuated | […] | […] | 5820 ± 723 ng/mL | […] | 8.4 ± 6 min | […] | ≤ 10 min | C[C@@H]1COCCN1c1cc(=O)n2c(n1)N(Cc1cncc(Cl)c1)[C@H](C(F)(F)F)CC2 [SAR405] | […] | […]
3 |  |  |  |  |  |  |  |  | CC(C)(O)CNc1ncc(-c2ccnc(Nc3ccnc(Cl)c3)n2)c(CC2CC2)n1 [VPS34-IN-1] | 11 µM | 25 nM
4 |  |  |  |  |  |  |  |  | CC(C)C(=O)CN1c2nc(N3CCOC[C@H]3C)cc(=O)n2CC[C@H]1C(F)(F)F [VPS34-IN-2, (2S)-8-[(3R)-3-methylmorpholin-4-yl]-1-(3-methyl-2-oxobutyl)-2-(trifluoromethyl)-3,4-dihydro-2H-pyrimido[1,2-a]pyrimidin-6-one] | 54.5 µM | 
